# From patent publication US20100285959A1, “HERBICIDAL MIXTURES” (priority 2006, published 2010)
# Tests used:
# [1] = tested on: common purslane (POROL); assay: Test 12 field trial, preemergence; type: in vivo, Portulaca oleracea; conditions: Cpd 2 or Cpd 1 62 g a.i./ha, Diuron 2000 g a.i./ha
# Excerpt: In early-mid spring season, corn seeds (hybrid ‘Pioneer 3041’) were planted 5 cm deep and sugarcane nodes (variety RB-72.454) were planted 10 cm deep in separate plots in a clay soil having 2.6% organic matter and a pH of 5.6. Plots were 24 m long by 1.5 m wide with rows spaced 80 cm (corn) or 140 cm (sugarcane) apart. Corn seeds were spaced 15 cm apart and sugarcane nodes were spaced 10 cm apart within the rows. At the same time, weed seeds were broadcast over the surface of separate plots without a crop, one weed species per plot. The weed plots were rotary tilled to incorporate the weed seeds to a variety of depths. The field was managed using conventional tillage practices.
# [2] = tested on: common lambsquarters (CHEAL); assay: Test 5 field trial, postemergence; type: in vivo, Chenopodium album
# Excerpt: Corn seeds (hybrid ‘Pioneer 38H69’) were planted in mid spring season, 5.1 cm deep in a silty clay loam soil having 3% organic matter and a pH of 6.5. Plots were 9.1 m long by 3.0 m wide with rows spaced 76 cm apart. The field was managed using conventional tillage practices. […] All treatments included a surfactant except glufosinate treatments, both alone and in combination. […] Results are summarized in Table 5 and are the means of the three replicates.
# [3] = tested on: arrowleaf sida (SIDRH); assay: Test 11 field trial, preemergence; type: in vivo, Sida rhombifolia
# Excerpt: (§1) Corn seeds (hybrid ‘Pioneer 3041’) were planted in mid spring season, 5 cm deep in a clay soil having 2.6% organic matter and a pH of 5.6. Plots were 8 m long by 1.5 m wide with rows spaced 80 cm apart. Seeds were spaced 15 cm apart within the rows. The field was managed using conventional tillage practices. […] Treatments consisted of Compound 2 or
# (§2) Goosegrass was not evaluated 16 or 91 days after application.
# [4] = tested on: tropical spiderwort (COMBE); assay: Test 11 field trial, preemergence; type: in vivo, Commelina benghalensis; parameters: scale not given here; conditions: alone or + atrazine 1500 or metolachlor 2500
# Excerpt: as §1, §2
# [5] = tested on: corn (ZEAMD); assay: Test 8 field trial, preemergence; type: in vivo, Zea mays ssp. indentata; conditions: hybrid Pioneer 31G96, corn (Zea mays ssp. indentata), in vivo, 56 days after application
# Excerpt: (§3) Corn seeds (hybrid ‘Pioneer 31G96’) were planted in mid spring season, 3.8 cm deep in a clay loam soil having 2% organic matter and a pH of 6.6. Plots were 6.1 m long by 3.0 m wide with rows spaced 76 cm apart. Seeds were spaced 15 cm apart within the rows. The field was managed using conventional tillage practices. […] A few of the weed species could not be evaluated at every timing. […] Results are the means of the three replicates.
# [6] = tested on: common lambsquarters (CHEAL); assay: Test 6 field trial, postemergence; type: in vivo, Chenopodium album
# Excerpt: Corn seeds (hybrid ‘Pioneer 35Y62’) were planted in mid spring season, 3.8 cm deep in a silt loam soil having 4% organic matter and a pH of 5.8. Plots were 10.7 m long by 1.5 m wide with rows spaced 76 cm apart. Seeds were spaced 18 cm apart within the rows. The field was managed using conventional tillage practices. […] All treatments included a surfactant except glufosinate treatments, both alone and in combination. […] Results are summarized in Table 6 and are the means of the three replicates.
# [7] = tested on: winter barley (HORVW); assay: Test 23 growth chamber, postemergence; type: in vivo, Hordeum vulgare; conditions: 21 DAA
# Procedure: (§4) A test was conducted to evaluate the effects on winter barley (HORVW, Hordeum vulgare L.), winter wheat (TRZAW, Triticum aestivum L.), and several weed species of mixtures of Compound 2 with the commercial herbicides (2,4-dichlorophenoxy)acetic acid (2,4-D) and (4-chloro-2-methylphenoxy)acetic acid (MCPA), auxin mimics. […] Plants were treated postemergence at the 2-4 leaf growth stage, and each treatment was replicated three times. […] Plants were watered as needed. […] Results are means of the three replicates.
# [8] = tested on: giant foxtail (SETFA); assay: Test 2 field trial, preemergence; type: in vivo, Setaria faberi; parameters: scale not given here
# Excerpt: as §3
# [9] = tested on: field violet (VIOAR); assay: Test 23 growth chamber, postemergence; type: in vivo, Viola arvensis; conditions: 21 DAA
# Procedure: as §4
# [10] = tested on: Russian thistle (SASKR); assay: Test 23 growth chamber, postemergence; type: in vivo, Salsola kali; conditions: 21 DAA
# Procedure: as §4
# [11] = tested on: velvetleaf (ABUTH); assay: Test 10 field trial, preemergence; type: in vivo, Abutilon theophrasti; conditions: 28 DAA
# Excerpt: Corn seeds (hybrid ‘Pioneer 33P65 RR’) were planted in mid spring season, 2.5 cm deep in a silt loam soil. Plots were 9.1 m long by 3.0 m wide with rows spaced 76 cm apart. The field was managed using conventional tillage practices. […] Results are the means of the three replicates.
compound,measurement,setting,value
"COC(=O)c1nc(C2CC2)nc(N)c1Cl [Compound 2, methyl 6-amino-5-chloro-2-cyclopropyl-4-pyrimidinecarboxylate]",POROL Obs,[1]; 15 DAA,60
same,POROL Obs,[1]; 29 DAA,75
same,POROL Obs,[1]; 48 DAA,90
same,POROL Obs,[1]; 61 DAA,90
same,CHEAL Obs,"[2]; 16 DAA, Cpd 2 30 g a.i./ha alone or with glufosinate 470 or glyphosate 1120",83%
same,CHEAL Obs,"[2]; 16 DAA, Cpd 2 60 g a.i./ha alone or with atrazine 1120, glufosinate 470 or glyphosate 1120",87%
same,CHEAL Obs,"[2]; 31 DAA, Cpd 2 30 g a.i./ha alone or with glufosinate 470 or glyphosate 1120",82%
same,CHEAL Obs,"[2]; 31 DAA, Cpd 2 60 g a.i./ha alone or with atrazine 1120, glufosinate 470 or glyphosate 1120",99%
same,SIDRH Obs,"[3]; 16 DAA, Cpd 2/Cpd 1 at 62 g a.i./ha, alone or + atrazine 1500 or metolachlor 2500",20
same,SIDRH Obs,"[3]; 16 DAA, Cpd 2/Cpd 1 at 125 g a.i./ha, alone or + atrazine 1500 or metolachlor 2500",40
same,SIDRH Obs,"[3]; 30 DAA, Cpd 2/Cpd 1 at 62 g a.i./ha, alone or + atrazine 1500 or metolachlor 2500",40
same,SIDRH Obs,"[3]; 30 DAA, Cpd 2/Cpd 1 at 125 g a.i./ha, alone or + atrazine 1500 or metolachlor 2500",70
same,SIDRH Obs,"[3]; 44 DAA, Cpd 2/Cpd 1 at 62 g a.i./ha, alone or + atrazine 1500 or metolachlor 2500",40
same,SIDRH Obs,"[3]; 44 DAA, Cpd 2/Cpd 1 at 125 g a.i./ha, alone or + atrazine 1500 or metolachlor 2500",75
same,SIDRH Obs,"[3]; 62 DAA, 62 g a.i./ha, scale 0 to 100",0
same,SIDRH Obs,"[3]; 62 DAA, 125 g a.i./ha, scale 0 to 100",40
same,SIDRH Obs,"[3]; 91 DAA, 62 g a.i./ha, scale 0 to 100",0
same,SIDRH Obs,"[3]; 91 DAA, 125 g a.i./ha, scale 0 to 100",40
same,COMBE Obs,"[4]; 16 DAA, Cpd 2/Cpd 1 at 62 g a.i./ha",40
same,COMBE Obs,"[4]; 16 DAA, Cpd 2/Cpd 1 at 125 g a.i./ha",60
same,COMBE Obs,"[4]; 30 DAA, Cpd 2/Cpd 1 at 62 g a.i./ha",40
same,COMBE Obs,"[4]; 30 DAA, Cpd 2/Cpd 1 at 125 g a.i./ha",60
same,COMBE Obs,"[4]; 44 DAA, Cpd 2/Cpd 1 at 62 g a.i./ha",40
same,COMBE Obs,"[4]; 44 DAA, Cpd 2/Cpd 1 at 125 g a.i./ha",60
same,COMBE Obs,"[4]; 62 DAA, Cpd 2/Cpd 1 at 62 g a.i./ha",0
same,COMBE Obs,"[4]; 62 DAA, Cpd 2/Cpd 1 at 125 g a.i./ha",40
same,COMBE Obs,"[4]; 91 DAA, Cpd 2/Cpd 1 at 62 g a.i./ha",0
same,COMBE Obs,"[4]; 91 DAA, Cpd 2/Cpd 1 at 125 g a.i./ha",40
same,ZEAMD Obs,[5],0%
same,CHEAL Obs,"[6]; 14 DAA, 30 g a.i./ha",100%
same,CHEAL Obs,"[6]; 14 DAA, 60 g a.i./ha",100%
same,CHEAL Obs,"[6]; 28 DAA, 30 g a.i./ha",100%
same,CHEAL Obs,"[6]; 28 DAA, 60 g a.i./ha",100%
same,Postemergence HORVW Obs,[7]; Cpd 2 alone 4 g a.i./ha,32
same,Postemergence HORVW Obs,[7]; Cpd 2 alone 8 g a.i./ha,38
same,Postemergence HORVW Obs,[7]; Cpd 2 alone 16 g a.i./ha,38
same,SETFA Obs,"[8]; 18 DAA, g a.i./ha: Cpd 2 25, Atrazine 250",13
same,SETFA Obs,"[8]; 18 DAA, g a.i./ha: Cpd 2 50, Atrazine 500",22
same,SETFA Obs,"[8]; 18 DAA, g a.i./ha: Cpd 2 75, Atrazine 750",32
same,SETFA Obs,"[8]; 18 DAA, g a.i./ha: Cpd 2 100, Atrazine 1000",35
same,SETFA Obs,"[8]; 18 DAA, g a.i./ha: Cpd 2 150, Atrazine 1500",43
same,SETFA Obs,"[8]; 28 DAA, g a.i./ha: Cpd 2 25, Atrazine 250",5
same,SETFA Obs,"[8]; 28 DAA, g a.i./ha: Cpd 2 50, Atrazine 500",10
same,SETFA Obs,"[8]; 28 DAA, g a.i./ha: Cpd 2 75, Atrazine 750",30
same,SETFA Obs,"[8]; 28 DAA, g a.i./ha: Cpd 2 100, Atrazine 1000",23
same,SETFA Obs,"[8]; 28 DAA, g a.i./ha: Cpd 2 150, Atrazine 1500",65
same,Postemergence VIOAR Obs,[9]; Cpd 2 alone 4 g a.i./ha,60
same,Postemergence VIOAR Obs,[9]; Cpd 2 alone 8 g a.i./ha,63
same,Postemergence VIOAR Obs,[9]; Cpd 2 alone 16 g a.i./ha,72
same,Postemergence SASKR Obs,[10]; Cpd 2 alone 4 g a.i./ha,55
same,Postemergence SASKR Obs,[10]; Cpd 2 alone 8 g a.i./ha,63
same,Postemergence SASKR Obs,[10]; Cpd 2 alone 16 g a.i./ha,72
same,ABUTH Obs,"[11]; g a.i./ha: Cpd 2 50, S-Metolachlor 1870",7%
same,ABUTH Obs,"[11]; g a.i./ha: Cpd 2 100, Atrazine 1680, S-Metolachlor 1870",7%
same,ABUTH Obs,"[11]; g a.i./ha: Cpd 2 150, S-Metolachlor 1870",13%
